From patent US10420761B2, “Allosteric inhibitors of thymidylate synthase” (UNIVERSITY OF FLORIDA RESEARCH FOUNDATION, INCORPORATED, priority 2013, dated 2019)
Read-outs that look alike come from different tables or passages of the source.

How the values were obtained:
[1] = tested on: small cell lung cancer cell line H1048; test: MTS cell viability assay, H1048; format: cell-based; settings: Homo sapiens, NCI-H1048
Method: (§1) Antiproliferative effects of 27 novel TS inhibitors were tested by MTS assay (Promega) in human cancer cell lines representing several major tumor types known to overexpress TS including lung, cervical, pancreatic and hematopoietic tumors. Six compounds (S, U, P, M, G and J) reduced cell viability by more than 40% in both human cervical cancer HeLa (FIG. 6) and myelogenous leukemia K562 cell lines (FIG. 7).
(§2) Complete dose response relationships for five most promising compounds (P, U, S, M and G) have been established in pancreatic neuroendocrine cancer, pancreatic ductal cancer and small cell lung cancer cell lines (Table 3). […] In pancreatic neuroendocrine tumors Bon1 and CM—the range was larger with GI50 values within 0.1-100 μM (FIGS. 10, 11). Such discrepancy in response to drugs between Bon1 and CM cells can be explained at least in part by different tumor type of these cells. CM cells were derived from insulinoma, a typical beta cell tumor that secrets insulin while Bon cells are carcinoid tumors derived from lymph nodes that produce serotonin.
(§3) 27 top scoring compounds that were identified by in silico screening were tested in human cancer cell lines. Cancer cell lines used for inhibitor testing were maintained under 70% confluency in appropriate cell culture medium (typically DMEM, supplemented with 10% FBS, and 1% pen-strep). Small molecule compounds were obtained from NCI DTP, resuspended in DMSO to generate 50 mM stocks and stored in the dark. In all experiments, fresh compound preparations were used whenever possible and no more than 2 freeze-thaw cycles were allowed for all drug tested. Cells were seeded in 96-well plates in quadruplicates (4 wells/condition) at 4000 cells/well. Compound solutions were freshly prepared in the appropriate cell culture medium and were added the following morning to the cells. After 72-hour incubation with the compound, cell proliferation was measured by MTS assays (Promega) and compared to that of the untreated cells or control drug, such as 5-FU or pemetrexed. Dose-response parameters were determined by plotting percent cell proliferation after treatment from at least eight different compound concentrations and by using non-linear regression fit (4-parameter dose-response) in Sigmaplot. All results shown are representative of at least 3 independent experiments.

[2] = format: in vivo
Method: To establish the maximum tolerated dose (MTD) for most promising new inhibitors, both immunodeficient SCID and immunocompetent FVB.129 mice were treated daily with compound S and methylated version of compound S at 12.5, 50, and 100 MKG (mg/kg) by i.p. injection (Tables 4 and 5). SCID immunodeficient mice were i.p. injected daily for 3 weeks and kept under observation for one additional week. Animals' weights were measured daily and the data is presented as the percentage of weight change from day 1 of treatment to day 28 at the termination of the experiment (Table 4). FVB.129 immunocompetent mice were i.p. injected daily for 2 weeks and kept under observation for one additional week. Animals' weights were measure daily and the data is presented as the percentage of weight change from day 1 of treatment to day 21 at the termination of the experiment (Table 5).
The SCID immunodeficient mice were i.p. injected daily for 3 weeks and kept under observation for one additional week. Animals' weights were measured daily and the data are presented as the percentage of weight change from day 1 of treatment to day 28 at the termination of the experiment (Table 4). The MTD for SCID mice for both compounds was 50 MKG. The FVB.129 immunocompetent mice were i.p. injected daily for 2 weeks and kept under observation for one additional week. Animals' weights were measured daily and the data are presented as the percentage of weight change from day 1 of treatment to day 21 at the termination of the experiment (Table 5). […] Thus, we have identified a derivative of compounds S that is less toxic to immunocompetent FVB.129 mice.

[3] = tested on: small cell lung cancer cell line H1607; test: MTS cell viability assay, H1607; format: cell-based; settings: Homo sapiens, SCLC, 72-hour incubation, unit inferred
Method: as §1, §2, §3

[4] = tested on: pancreatic ductal adenocarcinoma cell line Panc-1; test: MTS cell viability assay, Panc-1; format: cell-based; settings: Homo sapiens, PDAC, 72-hour incubation, unit inferred
Method: as §1, §2, §3

[5] = tested on: pancreatic neuroendocrine cell line CM (insulinoma); test: MTS cell viability assay, CM; format: cell-based
Method: as §1, §2, §3

in vivo = test: in vivo
Method: (§4) SCID immunodeficient mice were i.p. injected daily for 3 weeks and kept under observation for one additional week. Animals' weights were measured daily and the data is presented as the percentage of weight change from day 1 of treatment to day 28 at the termination of the experiment (Table 4). FVB.129 immunocompetent mice were i.p. injected daily for 2 weeks and kept under observation for one additional week. Animals' weights were measure daily and the data is presented as the percentage of weight change from day 1 of treatment to day 21 at the termination of the experiment (Table 5).
as §4, with “The SCID immunodeficient” for “SCID immunodeficient”, “the data are presented as” for “the data is presented as”, “(Table 4). […] The FVB.129 immunocompetent” for “(Table 4). FVB.129 immunocompetent”, “weights were measured daily and” for “weights were measure daily and”

[6] = tested on: mouse histiocytic sarcoma cell line 5278mHS (p16 deletion, activated hTS); test: MTS cell viability assay, mouse histiocytic sarcoma; format: cell-based
Method: (§5) We also tested the compounds S, U and P in mouse histiocytic sarcoma cell line that was derived from genetically engineered mouse model with p16 deletion and activated hTS overexpression. […] Dose-response curves and GI50 values for all compounds tested can be found in Table 3 and FIGS. 8-13.
as §3

[7] = tested on: pancreatic ductal adenocarcinoma cell line Miapaca-2; test: MTS cell viability assay, MiaPaca-2; format: cell-based; settings: Homo sapiens, MIA PaCa-2, PDAC, 72-hour incubation, unit inferred
Method: as §1, §2, §3

human cancer cell lines = test: MTS cell viability assay, statements over several cell lines; format: cell-based; settings: for GI50: Homo sapiens
Method: as §1, §2, §5, §3

[8] = tested on: pancreatic neuroendocrine cell line Bon1; test: MTS cell viability assay, Bon-1; format: cell-based
Method: as §1, §2, §3

[9] = SCLC, 72-hour incubation, MTS, unit inferred, read-out: GI50 H1048
[10] = PNET, 72-hour incubation, MTS, unit inferred, read-out: GI50 CM
[11] = mouse histiocytic sarcoma cell line, range over compounds S, U and P, read-out: GI50 values from
[12] = mouse histiocytic sarcoma, MTS, unit inferred, read-out: GI50 5278mHS
[13] = NCI-H1048, range over small cell lung cancer cell lines H1607 and H1048 and the five compounds, read-out: GI50 values in the range
[14] = range over pancreatic ductal adenocarcinoma cell lines Miapaca-2 and Panc-1 and the five compounds, read-out: GI50 values between
[15] = up to, over the tested cell lines
[16] = PNET, 72-hour incubation, MTS, unit inferred, read-out: GI50 Bon-1

For `CCc1nc(N)nc(N)c1-c1ccc(N(C)Cc2ccccc2)c([N+](=O)[O-])c1` [Compound S, 5-[4-[benzyl(methyl)amino]-3-nitrophenyl]-6-ethylpyrimidine-2,4-diamine], the GI50 ([1]; H1048 (SCLC), read-out: GI50) was 0.096 µM, the GI50 [1, 9] was 0.096 µM and the “animal found dead, D6” value ([2]; FVB.129 mice, 50 MKG i.p. daily, single mice) was “FDN”. The “animal found dead, D5” value ([2]; FVB.129 mice, 100 MKG i.p. daily, single mice) was “FDN”, the “day after treatment at which animals died” value ([2]; FVB.129, mouse, in vivo, ip, 2 weeks) was 6 days and the GI50 [3] was 8.2 µM. For the same compound, the GI50 [4] was 0.93 µM, the GI50 ([5]; CM (insulinoma), read-out: GI50) was 0.093 µM and the GI50 [5, 10] was 0.093 µM. For the same compound, the “animal found dead, D2” value (in vivo; SCID mice, 100 MKG i.p. daily, single mice) was “FDN”, the MTD at 3 weeks (in vivo; SCID, mouse, in vivo, ip, MTD) was ≥ 50 mg/kg and the GI50 [6, 11] was 0.4 to 20 µM. The GI50 [6, 12] was 0.42 µM, the GI50 [7] was 0.48 µM and the GI50 (human cancer cell lines; [13]) was 0.09 to 29 µM. The GI50 (human cancer cell lines; [14]) was 0.5 to 24 µM, the “fold lower GI50 than 5-FU” value (human cancer cell lines; [15]) was “up to 169 fold” and the “fold lower GI50 than pemetrexed” value (human cancer cell lines; [15]) was “up to 416 fold”. It also gave a GI50 ([8]; Bon1 cells, read-out: GI50) of 100 µM and a GI50 [8, 16] of 100 µM.

`CCN(CC)C1=CC(=O)/C(=N/Nc2cc(Br)ccn2)C=C1` [U, (E)-6-(2-(4-bromopyridin-2-yl)hydrazono)-3-(diethylamino)cyclohexa-2,4-dienone] showed a GI50 [1, 9] of 3.1 µM, a GI50 [3] of 2.5 µM and a GI50 [4] of 1.3 µM. It also gave a GI50 [5, 10] of 13 µM, a GI50 [6, 11] of 0.4 to 20 µM and a GI50 [6, 12] of 21 µM. It also gave a GI50 [7] of 12 µM, a GI50 (human cancer cell lines; [13]) of 0.09 to 29 µM and a GI50 (human cancer cell lines; [14]) of 0.5 to 24 µM. The GI50 [8, 16] was 2.4 µM.

In the case of `O=c1[nH]cc(F)c(=O)[nH]1` [Compound 5-FU, 5-fluorouracil, reference compound], the GI50 [1, 9] is reported as 2.3 µM, the GI50 [3] is reported as 36 µM and the GI50 [4] is reported as 11 µM. The GI50 [5, 10] was 16 µM, the GI50 [7] was 8.1 µM and the GI50 [8, 16] was 7.6 µM.

In the case of `O[C@@H](c1cc(C(F)(F)F)nc2c(C(F)(F)F)cccc12)C1CCCCN1` (stereo partly drawn) [P, (1S)-(2,8-bis(trifluoromethyl)quinolin-4-yl)(piperidin-2-yl)methanol], the GI50 [1, 9] is reported as 16 µM, the GI50 [3] is reported as 8.6 µM and the GI50 [4] is reported as 8.4 µM. The GI50 [5, 10] was 16 µM, the GI50 [6, 11] was 0.4 to 20 µM and the GI50 [6, 12] was 2.3 µM. It also gave a GI50 [7] of 7 µM, a GI50 (human cancer cell lines; [13]) of 0.09 to 29 µM and a GI50 (human cancer cell lines; [14]) of 0.5 to 24 µM. It also gave a GI50 [8, 16] of 7.6 µM.

With `Nc1nc2[nH]cc(CCc3ccc(C(=O)N[C@@H](CCC(=O)O)C(=O)O)cc3)c2c(=O)[nH]1` [Pemetrexed, pemetrexed, reference compound] the GI50 [1, 9] was 0.13 µM, the GI50 [3] was > 200 µM and the GI50 [4] was > 200 µM. For the same compound, the GI50 [5, 10] was 0.087 µM, the GI50 [7] was > 200 µM and the GI50 [8, 16] was > 200 µM.

With `COc1ccc(Cc2c[nH]cc3c(=O)c(OC)ccc2-3)cc1O` [Compound M, 4-(3-hydroxy-4-methoxybenzyl)-7-methoxyisoquinolin-8(2H)-one] the GI50 [1, 9] was 16 µM, the GI50 [3] was 2.6 µM and the GI50 [4] was 15 µM. The GI50 [5, 10] was 29 µM, the GI50 [7] was 24 µM and the GI50 (human cancer cell lines; [13]) was 0.09 to 29 µM. For the same compound, the GI50 (human cancer cell lines; [14]) was 0.5 to 24 µM and the GI50 [8, 16] was 26 µM.

For `CN(Cc1ccoc1)Cc1nnc(SCCOc2ccccc2)n1C` [Compound G, 1-(furan-3-yl)-N-methyl-N-((4-methyl-5-((2-phenoxyethyl)thio)-4H-1,2,4-triazol-3-yl)methyl)methanaminium], the GI50 [1, 9] was 4.3 µM, the GI50 [3] was 29 µM and the GI50 [4] was 15 µM. For the same compound, the GI50 [5, 10] was 32 µM, the GI50 [7] was 9.7 µM and the GI50 (human cancer cell lines; [13]) was 0.09 to 29 µM. The GI50 (human cancer cell lines; [14]) was 0.5 to 24 µM and the GI50 [8, 16] was 0.39 µM.
